In US9932341B2, “Use of pyrazolopyrimidine derivatives for the treatment of PI3K-delta related disorders” (Incyte Corporation, priority 2013, dated 2018):
Counter-ions that a name gives are not always drawn.

Molecular target: PI3Kδ (p110δ/p85α) (Homo sapiens (Human), UniProt O00329)
Test: PI3Kδ Scintillation Proximity Assay (Example A3)
Assay type: biochemical
Details: 20 μM ATP, 20 μM PIP2, 4 nM PI3Kδ, read-out: PI3Kδ SPA IC50
Protocol: [γ-^33P]ATP (10 mCi/mL) was purchased from PerkinElmer (Waltham, Mass.). […] PI3Kδ (p110δ/p85α) was purchased from Millipore (Bedford, Mass.). ATP, MgCl2, DTT, EDTA, MOPS and CHAPS were purchased from Sigma-Aldrich (St. Louis, Mo.). Wheat Germ Agglutinin (WGA) YSi SPA Scintillation Beads was purchased from GE healthcare life sciences (Piscataway, N.J.).
The kinase reaction was conducted in polystyrene 384-well matrix white plate from Thermo Fisher Scientific in a final volume of 25 μL. Inhibitors were first diluted serially in DMSO and added to the plate wells before the addition of other reaction components. The final concentration of DMSO in the assay was 0.5%. The PI3K assays were carried out at room temperature in 20 mM MOPS, pH 6.7, 10 mM MgCl2, 5 mM DTT and CHAPS 0.03%. Reactions were initiated by the addition of ATP, the final reaction mixture consisted of 20 μM PIP2, 20 μM ATP, 0.2 μCi [γ-^33P] ATP, 4 nM PI3Kδ. […] 25 mM EDTA, 400 μM ATP. The final concentration of SPA beads was 1.0 mg/mL. After the plate sealing, plates were shaken overnight at room temperature and centrifuged at 1800 rpm for 10 minutes, the radioactivity of the product was determined by scintillation counting on Topcount (PerkinElmer). IC50 determination was performed by fitting the curve of percent control activity versus the log of the inhibitor concentration using the GraphPad Prism 3.0 software.

Sequence of PI3Kδ (p110δ/p85α) (O00329 whole entry): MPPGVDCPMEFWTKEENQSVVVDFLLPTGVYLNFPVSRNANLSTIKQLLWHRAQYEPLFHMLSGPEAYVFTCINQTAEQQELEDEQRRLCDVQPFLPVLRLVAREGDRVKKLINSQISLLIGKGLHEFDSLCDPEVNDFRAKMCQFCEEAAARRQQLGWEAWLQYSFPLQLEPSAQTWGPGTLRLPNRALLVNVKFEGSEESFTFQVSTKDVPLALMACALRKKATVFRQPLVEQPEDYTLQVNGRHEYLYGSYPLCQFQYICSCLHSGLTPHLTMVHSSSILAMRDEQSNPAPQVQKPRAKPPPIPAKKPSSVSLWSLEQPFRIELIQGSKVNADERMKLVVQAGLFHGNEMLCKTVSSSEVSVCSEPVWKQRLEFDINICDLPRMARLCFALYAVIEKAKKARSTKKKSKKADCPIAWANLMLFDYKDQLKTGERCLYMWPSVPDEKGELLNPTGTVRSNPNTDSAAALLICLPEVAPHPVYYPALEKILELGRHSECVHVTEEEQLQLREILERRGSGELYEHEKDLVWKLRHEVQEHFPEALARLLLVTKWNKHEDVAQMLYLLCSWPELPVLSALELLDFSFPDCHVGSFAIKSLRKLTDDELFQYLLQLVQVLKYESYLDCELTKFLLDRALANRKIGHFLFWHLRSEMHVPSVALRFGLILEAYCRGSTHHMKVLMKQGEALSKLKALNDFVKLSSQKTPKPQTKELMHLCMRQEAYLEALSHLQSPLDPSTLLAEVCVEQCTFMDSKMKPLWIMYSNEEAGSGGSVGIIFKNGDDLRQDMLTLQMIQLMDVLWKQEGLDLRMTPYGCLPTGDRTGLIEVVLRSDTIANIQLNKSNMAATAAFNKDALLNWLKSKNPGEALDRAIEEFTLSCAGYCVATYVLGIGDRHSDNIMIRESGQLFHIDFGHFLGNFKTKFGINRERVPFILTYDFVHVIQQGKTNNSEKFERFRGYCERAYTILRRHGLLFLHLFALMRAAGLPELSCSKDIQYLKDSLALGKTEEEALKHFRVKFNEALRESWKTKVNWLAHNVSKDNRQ
Sequence of PI3Kδ (p110δ/p85α) (P27986 whole entry partner): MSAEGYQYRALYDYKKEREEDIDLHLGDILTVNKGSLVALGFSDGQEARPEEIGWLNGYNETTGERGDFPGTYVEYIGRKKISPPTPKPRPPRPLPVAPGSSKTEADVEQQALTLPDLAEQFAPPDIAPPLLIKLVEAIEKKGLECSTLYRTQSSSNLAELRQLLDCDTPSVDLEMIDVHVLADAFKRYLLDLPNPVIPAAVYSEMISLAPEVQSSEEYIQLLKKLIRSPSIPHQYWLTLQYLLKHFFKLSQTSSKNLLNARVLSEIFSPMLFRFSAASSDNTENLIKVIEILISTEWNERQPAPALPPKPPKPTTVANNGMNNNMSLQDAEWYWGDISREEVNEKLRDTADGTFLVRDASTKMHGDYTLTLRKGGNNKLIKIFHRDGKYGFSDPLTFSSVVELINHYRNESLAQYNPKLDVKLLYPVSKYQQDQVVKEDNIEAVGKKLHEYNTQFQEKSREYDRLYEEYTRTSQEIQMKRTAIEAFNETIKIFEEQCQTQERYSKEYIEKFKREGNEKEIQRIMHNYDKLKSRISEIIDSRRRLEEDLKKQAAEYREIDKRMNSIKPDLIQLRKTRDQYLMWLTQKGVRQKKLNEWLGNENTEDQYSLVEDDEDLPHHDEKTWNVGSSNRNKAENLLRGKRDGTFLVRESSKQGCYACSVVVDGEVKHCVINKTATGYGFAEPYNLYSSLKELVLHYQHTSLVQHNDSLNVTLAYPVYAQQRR

Compound | IC50 [nM]
COc1c(C(C)n2nc(C)c3c(N)ncnc32)cc(Cl)c(C#N)c1C1CN(C(C)CO)C1 (centres unmarked) [Example 272, 4-[1-(4-amino-3-methyl-1H-pyrazolo[3,4-d]pyrimidin-1-yl)ethyl]-6-chloro-2-[1-(2-hydroxy-1-methylethyl)azetidin-3-yl]-3-methoxybenzonitrile] | < 10
CCOc1c(C(C)n2nc(C)c3c(N)ncnc32)cc(C)c(C#N)c1C1CN(C(C)C)C1 (racemic) [Example 320, 4-[1-(4-amino-3-methyl-1H-pyrazolo[3,4-d]pyrimidin-1-yl)ethyl]-3-ethoxy-2-(1-isopropylazetidin-3-yl)-6-methylbenzonitrile] | < 10
CCN1CC(c2c(C)c(Cl)cc(C(C)n3nc(C)c4c(N)ncnc43)c2OC)C1 (racemic) [Example 6, 1-{1-[5-Chloro-3-(1-ethylazetidin-3-yl)-2-methoxy-4-methylphenyl]ethyl}-3-methyl-1H-pyrazolo[3,4-d]pyrimidin-4-amine] | < 10
COc1c(C(C)n2nc(C)c3c(N)ncnc32)cc(Cl)c(C)c1-c1ccnc(C(=O)N(C)C)c1 (centres unmarked) [Example 200, 4-(3-(1-(4-Amino-3-methyl-1H-pyrazolo[3,4-d]pyrimidin-1-yl)ethyl)-5-chloro-2-methoxy-6-methylphenyl)-N,N-dimethylpicolinamide bis(2,2,2-trifluoroacetate)] | < 10
COc1c(C(C)n2nc(C)c3c(N)ncnc32)cc(Cl)c(C)c1C1CN(CC(C)O)C1 (stereo in doubt) [Example 102, (2S)-1-(3-{3-[1-(4-Amino-3-methyl-1H-pyrazolo[3,4-d]pyrimidin-1-yl)ethyl]-5-chloro-2-methoxy-6-methylphenyl}azetidin-1-yl)propan-2-ol] | < 10
COc1c(C(C)n2nc(C)c3c(N)ncnc32)cc(Cl)c(C)c1C1CCN(C)CC1 (racemic) [Example 163, 1-{1-[5-Chloro-2-methoxy-4-methyl-3-(1-methylpiperidin-4-yl)phenyl]ethyl}-3-methyl-1H-pyrazolo[3,4-d]pyrimidin-4-amine] | < 10
COc1c(C(C)n2nc(C)c3c(N)ncnc32)cc(Cl)c(C)c1-c1ccc(NCCO)nc1 (single isomer, unassigned) [Example 184, 2-[(5-{3-[1-(4-Amino-3-methyl-1H-pyrazolo[3,4-d]pyrimidin-1-yl)ethyl]-5-chloro-2-methoxy-6-methylphenyl}pyridin-2-yl)amino]ethanol] | < 10
CCN1CC(c2c(Cl)c(Cl)cc(C(C)n3nc(C)c4c(N)ncnc43)c2OC)C1 (stereo not drawn) [298 (1st peak), 1-{1-[4,5-Dichloro-3-(1-ethylazetidin-3-yl)-2-methoxyphenyl]ethyl}-3-methyl-1H-pyrazolo[3,4-d]pyrimidin-4-amine] | < 10
COc1c(C(C)n2nc(C)c3c(N)ncnc32)cc(Cl)c(F)c1C1CN(C[C@H](C)O)C1 (stereo partly drawn) [68 (1st peak), (2S)-1-(3-{3-[1-(4-Amino-3-methyl-1H-pyrazolo[3,4-d]pyrimidin-1-yl)ethyl]-5-chloro-6-fluoro-2-methoxyphenyl}azetidin-1-yl)propan-2-ol] | < 10
CCOc1c(C(C)n2nc(C)c3c(N)ncnc32)cc(Cl)c(C#N)c1C1CN(C[C@H](C)O)C1 (stereo partly drawn) [Example 220, 4-[1-(4-Amino-3-methyl-1H-pyrazolo[3,4-d]pyrimidin-1-yl)ethyl]-6-chloro-3-ethoxy-2-{1-[(2S)-2-hydroxypropyl]azetidin-3-yl}benzonitrile] | < 10
COc1c(C(C)n2nc(C)c3c(N)ncnc32)cc(Cl)c(C)c1C1CN(C(=O)[C@H](C)O)C1 (single isomer, unassigned) [Example 118] | < 10
CNC(=O)N1CC(c2c(C)c(Cl)cc(C(C)n3nc(C)c4c(N)ncnc43)c2OC)C1 (racemic) [Example 10, 3-{3-[1-(4-Amino-3-methyl-1H-pyrazolo[3,4-d]pyrimidin-1-yl)ethyl]-5-chloro-2-methoxy-6-methylphenyl}-N-methylazetidine-1-carboxamide] | < 10
CCOc1c(C(C)n2nc(C)c3c(N)ncnc32)cc(Cl)c(C)c1C1CNC(=O)C1 (centres unmarked) [Example 310, 4-{3-[1-(4-amino-3-methyl-1H-pyrazolo[3,4-d]pyrimidin-1-yl)ethyl]-5-chloro-2-ethoxy-6-methylphenyl}pyrrolidin-2-one] | < 10
COc1c(C(C)n2nc(C)c3c(N)ncnc32)cc(Cl)c(C)c1-c1cnc(N)nc1 (single isomer, unassigned) [Example 169, 1-(1-(3-(2-aminopyrimidin-5-yl)-5-chloro-2-methoxy-4-methylphenyl)ethyl)-3-methyl-1H-pyrazolo[3,4-d]pyrimidin-4-amine] | < 10
CCOc1c(C(C)n2nc(C)c3c(N)ncnc32)cc(Cl)c(C#N)c1C1CNC1 (single isomer, unassigned) [Example 212, 4-[1-(4-Amino-3-methyl-1H-pyrazolo[3,4-d]pyrimidin-1-yl)ethyl]-2-azetidin-3-yl-6-chloro-3-ethoxybenzonitrile] | < 10
CCOc1c(C(C)n2nc(C)c3c(N)ncnc32)cc(Cl)c(C#N)c1C1CN(C(C)(C)C(N)=O)C1 (single isomer, unassigned) [Example 239, 2-{3-(3-[1-(4-Amino-3-methyl-1H-pyrazolo[3,4-d]pyrimidin-1-yl)ethyl]-5-chloro-6-cyano-2-ethoxyphenyl}azetidin-1-yl)-2-methylpropan amide] | < 10
COc1c(C(C)n2nc(C)c3c(N)ncnc32)cc(Cl)c(C)c1C1CN(C(C)C)C1 (single isomer, unassigned) [Example 1, 1-{1-[5-Chloro-3-(1-isopropylazetidin-3-yl)-2-methoxy-4-methylphenyl]ethyl}-3-methyl-1H-pyrazolo[3,4-d]pyrimidin-4-amine bis(trifluoroacetate)] | < 10
CCOc1c(C(C)n2nc(C)c3c(N)ncnc32)cc(Cl)c(C)c1C1CN(CCO)C1 (racemic) [Example 95, 2-(3-{3-[1-(4-Amino-3-methyl-1H-pyrazolo[3,4-d]pyrimidin-1-yl)ethyl]-5-chloro-2-ethoxy-6-methylphenyl}azetidin-1-yl)ethanol bis(trifluoroacetate)] | < 10
CNC(=O)[C@@H](C)N1CC(c2c(C)c(Cl)cc(C(C)n3nc(C)c4c(N)ncnc43)c2OC)C1 (stereo partly drawn) [Example 110, (2R)-2-(3-{3-[1-(4-Amino-3-methyl-1H-pyrazolo[3,4-d]pyrimidin-1-yl)ethyl]-5-chloro-2-methoxy-6-methylphenyl}azetidin-1-yl)-N-methylpropanamide trifluoroacetate] | < 10
CCOc1c(C(C)n2nc(C)c3c(N)ncnc32)cc(C)c(C#N)c1C1CN(C(=O)C(C)(C)O)C1 (single isomer, unassigned) [322 (1st peak), 4-[1-(4-amino-3-methyl-1H-pyrazolo[3,4-d]pyrimidin-1-yl)ethyl]-3-ethoxy-2-[1-(2-hydroxy-2-methylpropanoyl)azetidin-3-yl]-6-methylbenzonitrile] | < 10
CCOc1c(C(C)n2nc(C)c3c(N)ncnc32)cc(Cl)c(C)c1C1CN(C(=O)[C@H](C)O)C1 (stereo partly drawn) [Example 99, (2S)-1-(3-{3-[1-(4-Amino-3-methyl-1H-pyrazolo[3,4-d]pyrimidin-1-yl)ethyl]-5-chloro-2-ethoxy-6-methylphenyl}azetidin-1-yl)-1-oxopropan-2-ol trifluoroacetate] | < 10
COc1c(C(C)n2nc(C)c3c(N)ncnc32)cc(Cl)c(C)c1-c1cnn(CCN(C)C)c1 (single isomer, unassigned) [Example 183, 1-[1-(5-Chloro-3-{1-[2-(dimethylamino)ethyl]-1H-pyrazol-4-yl}-2-methoxy-4-methylphenyl)ethyl]-3-methyl-1H-pyrazolo[3,4-d]pyrimidin-4-amine] | < 10
COc1c(C(C)n2nc(C)c3c(N)ncnc32)cc(Cl)c(C)c1C1CN(C(C)=O)C1 (centres unmarked) [Example 2, 1-{1-[3-(1-Acetylazetidin-3-yl)-5-chloro-2-methoxy-4-methylphenyl]ethyl}-3-methyl-1H-pyrazolo[3,4-d]pyrimidin-4-amine trifluoroacetate] | < 10
CCOc1c(C(C)n2nc(C)c3c(N)ncnc32)cc(Cl)c(F)c1C1COC(=O)N1 (single isomer, unassigned) [Example 353, 4-{3-[1-(4-amino-3-methyl-1H-pyrazolo[3,4-d]pyrimidin-1-yl)ethyl]-5-chloro-2-ethoxy-6-fluorophenyl}-1,3-oxazolidin-2-one] | > 500
COc1c(C(C)n2nc(C)c3c(N)ncnc32)cc(Cl)c(C)c1C1CCN(CC(C)(C)O)CC1 (racemic) [Example 164, 1-(4-{3-[1-(4-Amino-3-methyl-1H-pyrazolo[3,4-d]pyrimidin-1-yl)ethyl]-5-chloro-2-methoxy-6-methylphenyl}piperidin-1-yl)-2-methylpropan-2-ol] | < 10
CCOc1c(C(C)n2nc(C)c3c(N)ncnc32)cc(Cl)c(F)c1C1CNC(=O)C1 (single isomer, unassigned) [Example 346, 4-{3-[1-(4-amino-3-methyl-1H-pyrazolo[3,4-d]pyrimidin-1-yl)ethyl]-5-chloro-2-ethoxy-6-fluorophenyl}pyrrolidin-2-one] | < 10
